Active and inactive are the calls of the source. The rule behind the calls is not given here.
Test system: CCRIS mutagenicity, Ames/micronucleus/aberration tests
Test: CCRIS mutagenicity studies

With `CCC(C)Nc1ccc(NC(C)CC)cc1` (configuration not stated) the mutagenic call (End Point: IN VITRO CHROMOSOMAL ABERRATIONS, Test System: CHINESE HAMSTER LUNG CELLS (CHL), Metabolic Activation: RAT, LIVER, S-9, KC-400) was “inactive; negative”, the mutagenic call (End Point: IN VITRO CHROMOSOMAL ABERRATIONS, Test System: CHINESE HAMSTER OVARY CELLS (CHO), Metabolic Activation: NONE) was “inactive; negative” and the mutagenic call (End Point: IN VITRO CHROMOSOMAL ABERRATIONS, Test System: CHINESE HAMSTER OVARY CELLS (CHO), Metabolic Activation: RAT, LIVER, S-9, AROCLOR 1254) was “inactive; negative”. The mutagenic call (Test System: AMES SALMONELLA TYPHIMURIUM, Strain/Indicator: TA97, Metabolic Activation: HAMSTER, LIVER, S-9, AROCLOR 1254 (10%), Method: PREINCUBATION) was “inactive; negative”, the mutagenic call (Test System: AMES SALMONELLA TYPHIMURIUM, Strain/Indicator: TA97, Metabolic Activation: HAMSTER, LIVER, S-9, AROCLOR 1254 (30%), Method: PREINCUBATION) was “inactive; negative” and the mutagenic call (Test System: AMES SALMONELLA TYPHIMURIUM, Strain/Indicator: TA97, Metabolic Activation: NONE, Method: PREINCUBATION) was “inactive; negative”. The mutagenic call (Test System: AMES SALMONELLA TYPHIMURIUM, Strain/Indicator: TA97, Metabolic Activation: RAT, LIVER, S-9, AROCLOR 1254 (10%), Method: PREINCUBATION) was “inactive; negative”, the mutagenic call (Test System: AMES SALMONELLA TYPHIMURIUM, Strain/Indicator: TA97, Metabolic Activation: RAT, LIVER, S-9, AROCLOR 1254 (30%), Method: PREINCUBATION) was “inactive; negative” and the mutagenic call (Test System: AMES SALMONELLA TYPHIMURIUM, Strain/Indicator: TA98, Metabolic Activation: HAMSTER, LIVER, S-9, AROCLOR 1254 (10%), Method: PREINCUBATION) was “inactive; negative”. For the same compound, the mutagenic call (Test System: AMES SALMONELLA TYPHIMURIUM, Strain/Indicator: TA98, Metabolic Activation: HAMSTER, LIVER, S-9, AROCLOR 1254 (30%), Method: PREINCUBATION) was “inactive; negative”, the mutagenic call (Test System: AMES SALMONELLA TYPHIMURIUM, Strain/Indicator: TA98, Metabolic Activation: NONE, Method: PREINCUBATION) was “inactive; negative” and the mutagenic call (Test System: AMES SALMONELLA TYPHIMURIUM, Strain/Indicator: TA98, Metabolic Activation: RAT, LIVER, S-9, AROCLOR 1254 (10%), Method: PREINCUBATION) was “inactive; negative”. For the same compound, the mutagenic call (Test System: AMES SALMONELLA TYPHIMURIUM, Strain/Indicator: TA98, Metabolic Activation: RAT, LIVER, S-9, AROCLOR 1254 (30%), Method: PREINCUBATION) was “inactive; negative”, the mutagenic call (Test System: AMES SALMONELLA TYPHIMURIUM, Strain/Indicator: TA100, Metabolic Activation: HAMSTER, LIVER, S-9, AROCLOR 1254 (5%), Method: PREINCUBATION) was “inactive; negative” and the mutagenic call (Test System: AMES SALMONELLA TYPHIMURIUM, Strain/Indicator: TA100, Metabolic Activation: HAMSTER, LIVER, S-9, AROCLOR 1254 (10%), Method: PREINCUBATION) was “inactive; negative”. For the same compound, the mutagenic call (Test System: AMES SALMONELLA TYPHIMURIUM, Strain/Indicator: TA100, Metabolic Activation: HAMSTER, LIVER, S-9, AROCLOR 1254 (30%), Method: PREINCUBATION) was “inactive; negative”, the mutagenic call (Test System: AMES SALMONELLA TYPHIMURIUM, Strain/Indicator: TA100, Metabolic Activation: NONE, Method: PREINCUBATION) was “inactive; negative” and the mutagenic call (Test System: AMES SALMONELLA TYPHIMURIUM, Strain/Indicator: TA100, Metabolic Activation: RAT, LIVER, S-9, AROCLOR 1254 (5%), Method: PREINCUBATION) was “inactive; negative”. The mutagenic call (Test System: AMES SALMONELLA TYPHIMURIUM, Strain/Indicator: TA100, Metabolic Activation: RAT, LIVER, S-9, AROCLOR 1254 (30%), Method: PREINCUBATION) was “inactive; negative”, the mutagenic call (Test System: AMES SALMONELLA TYPHIMURIUM, Strain/Indicator: TA100, Metabolic Activation: RAT,LIVER, S-9, AROCLOR 1254 (10%), Method: PREINCUBATION) was “inactive; negative” and the mutagenic call (Test System: AMES SALMONELLA TYPHIMURIUM, Strain/Indicator: TA1535, Metabolic Activation: HAMSTER, LIVER, S-9, AROCLOR 1254 (10%), Method: PREINCUBATION) was “inactive; negative”. The mutagenic call (Test System: AMES SALMONELLA TYPHIMURIUM, Strain/Indicator: TA1535, Metabolic Activation: HAMSTER, LIVER, S-9, AROCLOR 1254 (30%), Method: PREINCUBATION) was “inactive; negative”, the mutagenic call (Test System: AMES SALMONELLA TYPHIMURIUM, Strain/Indicator: TA1535, Metabolic Activation: NONE, Method: PREINCUBATION) was “inactive; negative” and the mutagenic call (Test System: AMES SALMONELLA TYPHIMURIUM, Strain/Indicator: TA1535, Metabolic Activation: RAT, LIVER, S-9, AROCLOR 1254 (10%), Method: PREINCUBATION) was “inactive; negative”. For the same compound, the mutagenic call (Test System: AMES SALMONELLA TYPHIMURIUM, Strain/Indicator: TA1535, Metabolic Activation: RAT, LIVER, S-9, AROCLOR 1254 (30%), Method: PREINCUBATION) was “inactive; negative”.
In the case of `CC(C)CCON=O`, the mutagenic call (End Point: IN VITRO CHROMOSOMAL ABERRATIONS, Test System: CHINESE HAMSTER OVARY CELLS, Metabolic Activation: NONE) is reported as “active; positive”, the mutagenic call (End Point: IN VITRO CHROMOSOMAL ABERRATIONS, Test System: CHINESE HAMSTER OVARY CELLS, Metabolic Activation: RAT, LIVER, S-9, AROCLOR 1254) is reported as “inactive; negative” and the mutagenic call (Test System: AMES SALMONELLA TYPHIMURIUM, Strain/Indicator: TA98, Metabolic Activation: HAMSTER, LIVER, S-9, AROCLOR 1254, Method: STANDARD PLATE) is reported as “inactive; negative”. The mutagenic call (Test System: AMES SALMONELLA TYPHIMURIUM, Strain/Indicator: TA98, Metabolic Activation: NONE, Method: STANDARD PLATE) was “inactive; negative”, the mutagenic call (Test System: AMES SALMONELLA TYPHIMURIUM, Strain/Indicator: TA98, Metabolic Activation: RAT, LIVER, S-9, AROCLOR 1254, Method: STANDARD PLATE) was “inactive; negative” and the mutagenic call (Test System: AMES SALMONELLA TYPHIMURIUM, Strain/Indicator: TA100, Metabolic Activation: HAMSTER, LIVER, S-9, AROCLOR 1254, Method: STANDARD PLATE) was “inactive; negative”. The mutagenic call (Test System: AMES SALMONELLA TYPHIMURIUM, Strain/Indicator: TA100, Metabolic Activation: NONE, Method: STANDARD PLATE) was “inactive; negative”, the mutagenic call (Test System: AMES SALMONELLA TYPHIMURIUM, Strain/Indicator: TA100, Metabolic Activation: RAT, LIVER, S-9, AROCLOR 1254, Method: STANDARD PLATE) was “inactive; negative” and the mutagenic call (Test System: AMES SALMONELLA TYPHIMURIUM, Strain/Indicator: TA1535, Metabolic Activation: HAMSTER, LIVER, S-9, AROCLOR 1254, Method: STANDARD PLATE) was “active; positive”. The mutagenic call (Test System: AMES SALMONELLA TYPHIMURIUM, Strain/Indicator: TA1535, Metabolic Activation: NONE, Method: STANDARD PLATE) was “active; positive”, the mutagenic call (Test System: AMES SALMONELLA TYPHIMURIUM, Strain/Indicator: TA1535, Metabolic Activation: RAT, LIVER, S-9, AROCLOR 1254, Method: STANDARD PLATE) was “active; positive” and the mutagenic call (Test System: AMES SALMONELLA TYPHIMURIUM, Strain/Indicator: TA1537, Metabolic Activation: HAMSTER, LIVER, S-9, AROCLOR 1254, Method: STANDARD PLATE) was “inactive; negative”. The mutagenic call (Test System: AMES SALMONELLA TYPHIMURIUM, Strain/Indicator: TA1537, Metabolic Activation: NONE, Method: STANDARD PLATE) was “inactive; negative”, the mutagenic call (Test System: AMES SALMONELLA TYPHIMURIUM, Strain/Indicator: TA1537, Metabolic Activation: RAT, LIVER, S-9, AROCLOR 1254, Method: STANDARD PLATE) was “inactive; negative” and the mutagenic call (Test System: MOUSE LYMPHOMA, Strain/Indicator: L5178Y (TK+/TK-), Metabolic Activation: NONE, Method: SUSPENSION/PLATE) was “active; positive”. For the same compound, the mutagenic call (Test System: MOUSE LYMPHOMA, Strain/Indicator: L5178Y (TK+/TK-), Metabolic Activation: RAT, LIVER, S-9, AROCLOR 1254, Method: SUSPENSION/PLATE) was “active; positive”.
With `Nc1cc(N)c(N=Nc2ccc(S(=O)(=O)O)cc2)cc1N=Nc1ccc(-c2ccc(N=Nc3ccc(C(=O)O)c(O)c3)cc2)cc1` the mutagenic call (Test System: AMES SALMONELLA TYPHIMURIUM, Strain/Indicator: TA98, Metabolic Activation: HAMSTER, LIVER, S-9, Method: PREINCUBATION (PRIVAL METHOD)) was “active; positive”.

Reference: PubChem BioAssay AID1259407 (Chemical Carcinogenesis Research Information System (CCRIS), 2018)
